Measured values taken from PubChem BioAssay (NCI).
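Grown in 96-well plates, cells were treated for 48 hours with each compound at five concentrations. Insufficient inhibition: endpoint recorded as highest concentration tested. GI50: concentration for 50% inhibition of growth. The concentration for full growth arrest is given as TGI.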

Legend:
Test in all cases: inhibition of tumour cell growth, NCI panel, 48 h
SK-MEL-28 melanoma = system: SK-MEL-28 melanoma
NCI-H23 lung = system: NCI-H23 lung
SK-MEL-2 melanoma = system: SK-MEL-2 melanoma
MDA-MB-231 breast = system: MDA-MB-231 breast
UACC-257 melanoma = system: UACC-257 melanoma
KM12 colon = system: KM12 colon
CCRF-CEM leukemia = system: CCRF-CEM leukemia
U251 CNS = system: U251 CNS
IGROV1 ovarian = system: IGROV1 ovarian
SK-MEL-5 melanoma = system: SK-MEL-5 melanoma

Compound	GI50 (SK-MEL-28 melanoma) [µM]	TGI (SK-MEL-28 melanoma) [µM]	GI50 (NCI-H23 lung) [µM]	TGI (NCI-H23 lung) [µM]	GI50 (SK-MEL-2 melanoma) [µM]	TGI (SK-MEL-2 melanoma) [µM]	GI50 (MDA-MB-231 breast) [µM]	TGI (MDA-MB-231 breast) [µM]	GI50 (UACC-257 melanoma) [µM]	TGI (UACC-257 melanoma) [µM]	GI50 (KM12 colon) [µM]	TGI (KM12 colon) [µM]	GI50 (CCRF-CEM leukemia) [µM]	TGI (CCRF-CEM leukemia) [µM]	GI50 (U251 CNS) [µM]	TGI (U251 CNS) [µM]	GI50 (IGROV1 ovarian) [µM]	TGI (IGROV1 ovarian) [µM]	GI50 (SK-MEL-5 melanoma) [µM]	TGI (SK-MEL-5 melanoma) [µM]
CC1(C)N=C(N)N=C(N)N1c1cccc(CCCCc2ccccc2)c1	0.894	15.6	0.402	14.1	1.82	11.4	2.47	21.3	0.78	12.1	0.212	1.86	0.123	7.04	0.0541	13.5	0.135	10.1	0.198	1.36
O=C(Nc1ccccc1)NS(=O)(=O)c1ccc(N2N=C3c4ccccc4CC3C2c2ccccn2)cc1 (stereo not given)	71.5	> 100	20.8	52.2	35.6	> 100	19.8	60.8	26.6	76.6	24.8	88.7	40.9	> 100	31.9	> 100	16.2	80.5	23.6	47
OCCNc1ncnc2c1ncn2C1OC(CO)C(O)C1O (stereo not given)	–	> 100	–	> 100	–	> 100	–	89.4	–	> 100	–	> 100	–	> 100	–	> 100	–	> 100	–	> 100
O=c1oc2ccc(Cl)cc2c(=O)n1-c1cc(C(F)(F)F)cc(C(F)(F)F)c1	0.273	1.69	0.289	1.11	0.236	0.846	0.289	4.36	0.233	1.6	0.342	1.32	0.388	10.2	0.254	11.6	0.412	12.9	0.138	0.336
COc1cc2nc(N3CCCC3)nc(Nc3ccccc3)c2cc1OC	1.76	3.18	1.93	3.76	2.09	4.16	1.56	3.11	1.86	3.79	1.74	3.32	0.329	3.09	1.02	2.45	1.38	2.84	1.71	3.12
COc1ccc(-c2cc(-c3cn[nH]c3-c3ccccn3)ccn2)cc1	> 25	> 25	> 25	> 25	> 25	> 25	> 25	> 25	> 25	> 25	> 25	> 25	> 25	> 25	> 25	> 25	> 25	> 25	> 25	> 25
